Source: BindingDB's records for doi:10.1021/np8001628 (University of Utah, 2008)
Structures can show the parent of a compound that is named as a salt.

The molecules below were run against Transcription factor p65 (Human, UniProt Q04206) (assay: Inhibition of IL1-induced NF-kappaB P65 activation in human osteoarthritic primary chondrocytes preincubated 2 hrs before addition of IL1 by ELISA).
Chain of Transcription factor p65 (Q04206 whole entry): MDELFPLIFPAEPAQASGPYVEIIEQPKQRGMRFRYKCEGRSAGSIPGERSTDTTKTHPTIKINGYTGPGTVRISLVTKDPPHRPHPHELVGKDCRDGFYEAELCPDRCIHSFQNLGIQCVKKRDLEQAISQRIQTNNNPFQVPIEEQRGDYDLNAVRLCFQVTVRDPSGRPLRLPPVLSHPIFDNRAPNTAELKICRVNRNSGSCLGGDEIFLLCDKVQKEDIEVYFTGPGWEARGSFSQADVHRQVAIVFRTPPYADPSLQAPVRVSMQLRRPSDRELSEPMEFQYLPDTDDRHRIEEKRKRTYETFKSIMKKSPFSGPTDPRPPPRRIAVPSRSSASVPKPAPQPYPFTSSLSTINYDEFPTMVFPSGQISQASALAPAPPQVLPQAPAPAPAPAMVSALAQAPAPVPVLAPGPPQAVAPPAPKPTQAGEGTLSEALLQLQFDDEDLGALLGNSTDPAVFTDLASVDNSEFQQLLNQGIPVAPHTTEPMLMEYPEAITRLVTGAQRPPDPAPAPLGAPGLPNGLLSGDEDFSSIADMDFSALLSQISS

EC50, 12 µM:
C=C(C)C(CC)CC[C@@H](C)[C@H]1CC[C@@]2(C)[C@@H]3C[C@H](OS(=O)(=O)O)[C@H]4[C@@H](O)[C@H](OS(=O)(=O)O)[C@@H](OS(=O)(=O)O)C[C@]4(C)C3=CC[C@]12C (some centres undefined) [Spheciosterol sulfate A]
C=C(C)C(CC[C@@H](C)[C@H]1CC[C@@]2(C)[C@@H]3C[C@H](OS(=O)(=O)O)[C@H]4[C@@H](O)[C@H](OS(=O)(=O)O)[C@@H](OS(=O)(=O)O)C[C@]4(C)C3=CC[C@]12C)C(C)C (some centres undefined) [Spheciosterol sulfate B]
C=C(C)C(C)(C)C(C)CC[C@@H](C)[C@H]1CC[C@@]2(C)[C@@H]3C[C@H](OS(=O)(=O)O)[C@H]4[C@@H](O)[C@H](OS(=O)(=O)O)[C@@H](OS(=O)(=O)O)C[C@]4(C)C3=CC[C@]12C (some centres undefined) [Spheciosterol sulfate C]
CC(C)C1(CC[C@@H](C)[C@H]2CC[C@@]3(C)[C@@H]4C[C@H](OS(=O)(=O)O)[C@H]5[C@@H](O)[C@H](OS(=O)(=O)O)[C@@H](OS(=O)(=O)O)C[C@]5(C)C4=CC[C@]23C)CC1C (some centres undefined) [Topsentiasterol sulfate E]
